According to publication PMC10604213, “Purification and Characterization of Polyphenol Oxidase in the Fruits of Opuntia ficus-indica” (Biology, 2023):

Key:
[1] = test system: T1, polyphenol oxidase (PPO) from the fruits of Opuntia ficus-indica; experiment: absorbance at […] nm, Lineweaver-Burk; format: biochemical; details: 0.1 M phosphate buffer
T1 construct: native, from fruit flesh; few SDS-PAGE bands, two prominent: slightly below 35 kDa and slightly above 45 kDa

[2] = test system: T1, polyphenol oxidase (PPO) from the fruits of Opuntia ficus-indica; experiment: absorbance at […] nm, Lineweaver-Burk; format: biochemical; details: pH 9.0, 20 °C, 0.1 M Tris-base buffer

Molecule `Cc1ccc(O)c(O)c1` [4-methyl catechol] has a Km ([1]; pH 7.5, 30 °C) of 5.38 mM.
`Oc1cccc(O)c1O` [pyrogallol] gave a Km [2] of 16.7 mM.
With `Oc1ccccc1O` [catechol] the Km ([1]; pH 7.5, 20 °C) was 6.33 mM.
